Among the test systems are DMS 114 small cell lung; HOP-18 NSCLC; KM20L2 colon; M19-MEL melanoma; NCI/ADR-RES ovarian; MDA-N; LXFL 529 NSCLC; SNB-78 CNS.
Test in all cases: growth of human tumour cells (NCI), 48 h

Several values for one entry are separate records, joined by “and”; a condition that tells them apart may be missing. Equal entries are not always repeated.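 Grown in 96-well plates, cells were treated for 48 hours with each compound at five concentrations. Insufficient inhibition: endpoint recorded as highest concentration tested. At the GI50, growth is halved. Definition used: TGI = concentration required for complete inhibition of growth.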 A value given as a limit tells only on which side of the number the result lay.

For the molecule `O=C(Nc1cc(Cl)ccc1Cl)c1cc2cccc(Cl)c2oc1=O`, the TGI in the assay with DMS 114 small cell lung, with HOP-18 NSCLC, in the assay with KM20L2 colon and with M19-MEL melanoma was more than 100 µM in each case.

Regarding `Cc1cn2c(/C=C3\C(=O)Nc4ccc(O)cc43)c(-c3ccc(Cl)cc3)nc2s1`, in the assay on NCI/ADR-RES ovarian, the GI50 was 21.5 µM and the TGI was more than 100 µM.

Turning to `N#Cc1c(-c2ccc(F)cc2)c(-c2ccc(F)cc2)nn(CCO)c1=O`, the TGI came out at 0.121 µM with MDA-N and 22.5 µM in the assay on NCI/ADR-RES ovarian.

With `CCCCCCNC(=O)c1nc(-c2ccccc2)oc1Cc1ccc(OP(=O)(O)O)cc1`, in the assay on NCI/ADR-RES ovarian, the GI50 is 20.3 µM and the TGI worked out at 42 µM.

Take `C[C@H]1Oc2cc(cnc2N)-c2c(nn(C)c2C#N)CN(C)C(=O)c2ccc(F)cc21`: in the assay with NCI/ADR-RES ovarian, the GI50 is 65.5 µM and the TGI is more than 100 µM.

As for `C1CSCCSCCS1`, the TGI in the assay with MDA-N and with NCI/ADR-RES ovarian was more than 100 µM throughout.

Regarding `CS(=O)(=O)CCCn1c(=O)c(Oc2ccc(F)cc2F)cc2cnc(NC3CCOCC3)nc21`, in the assay on NCI/ADR-RES ovarian, the GI50 was more than 25 µM and the TGI was more than 25 µM.

Regarding `COc1ccncc1C#Cc1cncc(C(=O)Nc2ccc(CN3CCN(C)CC3)c(C(F)(F)F)c2)c1`, in the assay on NCI/ADR-RES ovarian, the GI50 is 33.4 µM and the TGI was more than 100 µM.

Turning to `COC12C=C/C(=C(/C(=O)OCc3ccncc3)C(=O)CCCCCCCCC3(OC)C=C/C(=C(/C(=O)OCc4ccncc4)C(=O)CCCCCCCC1)O3)O2`, in the assay on NCI/ADR-RES ovarian, the GI50 was 0.774 µM and the TGI stood at 3.93 µM.

Turning to `O=c1cc2oc3cc(O)c(O)cc3c(-c3ccccc3O)c-2cc1O`, in the assay with NCI/ADR-RES ovarian, the GI50 is 8.16 µM and the TGI worked out at 42 µM.

As for `COc1ccc(-c2oc(=O)ccc2-c2cc(OC)c(OC)c(OC)c2)cc1F`, in the assay with NCI/ADR-RES ovarian, the GI50 is 11 µM and the TGI is more than 100 µM.

With `O=C(c1ccc(F)c(F)c1Nc1ccc(I)cc1F)N1CC(O)([C@@H]2CCCCN2)C1`, in the assay with NCI/ADR-RES ovarian, the GI50 was 6.56 µM and > 7.36 µM; the TGI is 21.5 µM and > 10 µM.

As for `Cc1nc2ccccc2nc1-c1ccc(N=[N+]([O-])c2ccc(-c3nc4ccccc4nc3C)cc2)cc1`, the TGI with MDA-N and in the assay with NCI/ADR-RES ovarian was more than 100 µM throughout.

With `O=C1c2ccccc2C2(O)c3cc4ccccc4cc3OC12O` (stereo unspecified), the TGI in the assay with DMS 114 small cell lung is 99 µM; in the assay with HOP-18 NSCLC, more than 100 µM; in the assay with KM20L2 colon, more than 100 µM; with LXFL 529 NSCLC, more than 100 µM; with M19-MEL melanoma, more than 100 µM; in the assay with SNB-78 CNS, more than 100 µM.

`CC1=C2CCCC2=C/C(=N/Nc2ccc([N+](=O)[O-])cc2[N+](=O)[O-])CC1`: the TGI with DMS 114 small cell lung, in the assay on HOP-18 NSCLC, with KM20L2 colon, in the assay with LXFL 529 NSCLC, in the assay on M19-MEL melanoma and in the assay with SNB-78 CNS was more than 100 µM throughout.

With `O=C(N/N=C1/C(=O)N(c2ccc(Cl)cc2Cl)C(=O)C(=O)C1c1nc2ccccc2o1)c1ccccc1O` (stereo unspecified), the TGI was 78.5 µM with DMS 114 small cell lung, more than 100 µM with KM20L2 colon, more than 100 µM in the assay with LXFL 529 NSCLC and more than 100 µM with M19-MEL melanoma.

On to `CC1=CC(=O)[C@@H](O)[C@]2(C)[C@H]3[C@@]4(O)OC[C@]35[C@H]([C@@H](C)[C@H]4O)[C@@H](O)C(=O)O[C@@H]5C[C@@H]12`, for which the TGI with MDA-N worked out at 0.869 µM; in the assay on NCI/ADR-RES ovarian, 22.6 µM.

Regarding `Nc1nc(N)c(N=Nc2ccc([As](=O)(O)O)cc2)c(=O)[nH]1`, the TGI with MDA-N and in the assay on NCI/ADR-RES ovarian was more than 100 µM in each case.

`COc1cc(CNCCCN2C(=O)c3ccc4c5c(ccc(c35)C2=O)C(=O)N(CCCNCc2cc(OC)c(OC)c(OC)c2)C4=O)cc(OC)c1OC`: in the assay with NCI/ADR-RES ovarian, the GI50 is 9.16 µM and the TGI stood at 39 µM.

`COc1cccc(/C=N/[N-]C(=O)c2ccncc2)c1[O-].[Cu+2].[OH3+]`: the GI50 in the assay on DMS 114 small cell lung is 71.1 µM; in the assay on HOP-18 NSCLC, more than 100 µM; with KM20L2 colon, 47.9 µM; with LXFL 529 NSCLC it was 57.7 µM; in the assay on M19-MEL melanoma, more than 100 µM; in the assay with SNB-78 CNS, more than 100 µM. In addition, the TGI in the assay with DMS 114 small cell lung, in the assay with HOP-18 NSCLC, with KM20L2 colon, with LXFL 529 NSCLC, in the assay with M19-MEL melanoma and with SNB-78 CNS was more than 100 µM each time.

On to `Cc1ccc(/C=C/c2c(C(=O)/C=C/c3ccc(C(F)(F)F)cc3)c(C)nc3ccccc23)cc1`, for which, in the assay on NCI/ADR-RES ovarian, the GI50 is 2.22 µM and the TGI was 5.92 µM.

`COc1cccc2c1C(=O)c1c(O)c3c(c(O)c1C2=O)CC(O)(/C(C)=N/NC(=O)CCC(=O)N/N=C(\C)C1(O)Cc2c(O)c4c(c(O)c2C(OC2CC(N)C(O)C(C)O2)C1)C(=O)c1c(OC)cccc1C4=O)CC3OC1CC(N)C(O)C(C)O1` (stereo unspecified): in the assay on NCI/ADR-RES ovarian, the GI50 was 13.5 µM and the TGI is more than 50 µM.

In the case of `Cc1ccc(Cn2c(C)nc3c2C(=O)c2ccccc2C3=O)cc1`, the TGI in the assay on KM20L2 colon is more than 100 µM; in the assay with LXFL 529 NSCLC, 58 µM; in the assay on M19-MEL melanoma, 21.1 µM; in the assay with SNB-78 CNS, more than 100 µM.

Take `COC1C(O)=C2C(=O)O/C(C)=C/C=C/C=C/C=C\CC(c3ccccc3)NC(=O)\C=C/C=C\C=C\C=C\[C@@]2(C)[C@@H]1O` (stereo partly specified): the TGI in the assay with DMS 114 small cell lung came out at 0.357 µM; in the assay on KM20L2 colon, 0.165 µM; with M19-MEL melanoma, 0.273 µM; in the assay on MDA-N it was 0.265 µM.

In the case of `O=C(O)CSc1n[nH]c(-c2ccccc2)n1`, the TGI with HOP-18 NSCLC, with KM20L2 colon, with LXFL 529 NSCLC and with M19-MEL melanoma was more than 100 µM each time.

In the case of `COc1c(OC)c(OC)c(C(=O)/C=C/c2ccccc2)c(OC)c1OC`, the figures for the TGI in the assay with MDA-N and in the assay with NCI/ADR-RES ovarian were 70.2 µM and 55.1 µM, respectively.

For the molecule `O=C(CC(O)(C(F)(F)F)C(F)(F)F)c1cc(CC(=O)C(O)(C(F)(F)F)C(F)(F)F)cc(CC(=O)C(O)(C(F)(F)F)C(F)(F)F)c1`, the TGI with MDA-N was more than 9.13 µM; in the assay with NCI/ADR-RES ovarian, more than 6.65 µM.

For `C=CC(=O)N1CCC(C2CCNc3c(C(N)=O)c(-c4ccc(Oc5ccccc5)cc4)nn32)CC1` (stereo unspecified), in the assay on NCI/ADR-RES ovarian, the GI50 was 16.4 µM and the TGI stood at 61 µM.

In the case of `Ic1ccc(-n2nnnc2-c2cnoc2-c2ccccc2)cc1`, in the assay with NCI/ADR-RES ovarian, the GI50 was 33 µM and the TGI is more than 85.2 µM.

(Values after PubChem BioAssay (NCI).)
